Measurements taken from patent US8895564B2, “Biguanide derivative compound” (Nihon University, priority 2010, dated 2014).

Columns and labels:
[1] = Cytotoxic test, alamar blue assay; format: cell-based; conditions: human, undifferentiated SH-SY5Y neuroblastoma cells, 24 hours exposure, concentration at which respiratory activity decreased to 50%, read-out: IC50 Cytotoxicity
Description: Using SH-SY5Y, a cytotoxic test was performed. In this test also, memantine and amiloride were used as control compounds.
The SH-SY5Y neuroblastoma cell line was purchased from American Type Culture Collection. The cells were cultured in the medium containing penicillin (100 U/mL), streptomycin (100 U/mL), and inactivated fetal bovine serum (Gibco). The cells were maintained in a CO2 incubator at 37° C. under the conditions of 95% air and 5% CO2.
Undifferentiated SH-SY5Y cells were exposed to various concentrations of Compounds 1, 2, and 3 for 24 hours. The alamar blue stock solution was transferred to a 96-well plate so that the final assay volume was 100 μL/well with a final alamar blue concentration of 10%. Six hours later, reduced alamar blue was measured at a wavelength of 570 nm. As to the survival rate (%), assuming that the mitochondrial respiratory activity in the drug-free cells as 100%, the respiratory activity of the cells exposed to Compounds 1, 2, and 3 for 24 hours was expressed as relative values.

[2] = molecular target: NR1/NR2A (Rattus norvegicus, UniProt P35439+Q00959); assay: Inhibition of NMDA receptor NR1/NR2A activity in Xenopus laevis oocytes, two-electrode voltage clamp method
Description: The effect of the compound of the present invention on NMDA receptors was measured by the two-electrode voltage clamp method.
(1) Preparation of the NMDA receptor-expressing Xenopus laevis oocytes
Into the oocytes, cRNA of the NR1 subunit and cRNA of the NR2 subunit of the NMDA receptor were injected at a ratio of 1:5 (0.1 to 4 ng of NR1 and 0.5 to 20 ng of NR2), whereby the oocytes expressing NMDA receptors were obtained.
(2) The oocytes thus obtained were cultured in the medium (96 mM NaCl, 2 mM KCl, 1 mM MgCl2, 1.8 mM CaCl2, 5 mM Na-HEPES, 2.5 mM sodium pyruvate, 50 mg/mL gentamicin, pH=7.5) at 19° C. for 1 to 3 days.
On the day of measurement, after injecting K^+-BAPTA into the oocytes, the activity of the receptor was measured by the two-electrode voltage clamp method to be described later using a recording buffer (96 mM NaCl, 2 mM KCl, 1.8 mM BaCl2, 10 mM Na-HEPES, pH=7.5).
Among them, because NR1/NR2A is considered to be most prevalently expressed in the brain, the inhibitory effect on the activity of NR1/NR2A was measured in the following tests.
(3) Two-electrode voltage clamp method
Using the two-electrode voltage clamp amplifier CEZ-1250 (NIHON KOHDEN CORPORATION), the electric current which has passed through the entire oocyte membrane was measured. Electrodes were filled with 3M potassium chloride and the resistance was set at 0.4 to 4 MΩ. Also, for measurement, glutamic acid and glycine were added as the NMDA receptor agonists.
(4) To the oocytes obtained by the aforementioned method, various concentrations of compounds were added. Setting the voltage clamp at Vh=−70 mV (resting membrane potential), the inhibitory effect on the activity of NR1/NR2A was measured.
The values obtained from four to five oocytes were averaged out and the resulting value ±S.E.M. was obtained as the measurement value.

[3] = molecular target: T1, ASIC1a (Homo sapiens, UniProt P78348); assay: Inhibition of ASIC1a current in ASIC1a-expressing Xenopus laevis oocytes, two-electrode voltage clamp method; format: cell-based; conditions: current induced by shifting pH from 7.5 to 6.0; four to five oocytes
T1 construct: expressed in transfected cells; host or cells: Xenopus laevis oocytes injected with capped cRNA
T1 sequence (P78348 1-528): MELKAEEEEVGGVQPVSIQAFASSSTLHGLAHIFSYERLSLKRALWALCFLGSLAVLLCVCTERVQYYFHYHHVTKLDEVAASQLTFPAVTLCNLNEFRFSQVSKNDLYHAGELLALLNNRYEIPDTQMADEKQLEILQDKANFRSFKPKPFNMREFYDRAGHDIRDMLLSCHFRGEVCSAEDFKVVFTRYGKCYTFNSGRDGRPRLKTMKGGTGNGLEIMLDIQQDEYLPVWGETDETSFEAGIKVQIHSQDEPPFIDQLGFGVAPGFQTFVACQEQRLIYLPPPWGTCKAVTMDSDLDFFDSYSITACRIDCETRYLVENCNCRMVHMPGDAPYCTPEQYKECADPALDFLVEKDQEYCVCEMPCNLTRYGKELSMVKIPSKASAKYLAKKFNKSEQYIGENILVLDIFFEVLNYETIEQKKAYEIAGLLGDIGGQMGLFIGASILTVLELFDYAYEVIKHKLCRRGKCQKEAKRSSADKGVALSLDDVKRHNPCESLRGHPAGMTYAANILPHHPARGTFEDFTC
Description: (1) Preparation of the ASIC1a-expressing Xenopus laevis oocytes
Using the RNeasy Protect Mini Kit (QIAGEN), total RNA was prepared from HEK293 cells. Subsequently, using the High Fidelity RNA PCR kit (TAKARA BIO INC.), first strand cDNA was synthesized, and using this first strand cDNA as a template, PCR was performed. The sense-strand primer for PCR was: […] (SEQ ID NO: 1) and the antisense-strand primer for PCR was: […] (SEQ ID NO: 2), and the PCR conditions were such that one cycle consisting of 95° C. for 30 seconds, 55° C. for 30 seconds, and 72° C. for 90 seconds was repeated 30 cycles. The PCR product was inserted into the PCR2.1 vector, and the resulting vector was further subcloned into the pcDNA3.1 (−) vector. From the ASIC1a plasmid which was linearized by the BamHI enzyme, capped cRNA was synthesized using the mMessage mMachine Kits (Ambion).

Sequence of NR1/NR2A (Q00959 23-1464, other chains not shown): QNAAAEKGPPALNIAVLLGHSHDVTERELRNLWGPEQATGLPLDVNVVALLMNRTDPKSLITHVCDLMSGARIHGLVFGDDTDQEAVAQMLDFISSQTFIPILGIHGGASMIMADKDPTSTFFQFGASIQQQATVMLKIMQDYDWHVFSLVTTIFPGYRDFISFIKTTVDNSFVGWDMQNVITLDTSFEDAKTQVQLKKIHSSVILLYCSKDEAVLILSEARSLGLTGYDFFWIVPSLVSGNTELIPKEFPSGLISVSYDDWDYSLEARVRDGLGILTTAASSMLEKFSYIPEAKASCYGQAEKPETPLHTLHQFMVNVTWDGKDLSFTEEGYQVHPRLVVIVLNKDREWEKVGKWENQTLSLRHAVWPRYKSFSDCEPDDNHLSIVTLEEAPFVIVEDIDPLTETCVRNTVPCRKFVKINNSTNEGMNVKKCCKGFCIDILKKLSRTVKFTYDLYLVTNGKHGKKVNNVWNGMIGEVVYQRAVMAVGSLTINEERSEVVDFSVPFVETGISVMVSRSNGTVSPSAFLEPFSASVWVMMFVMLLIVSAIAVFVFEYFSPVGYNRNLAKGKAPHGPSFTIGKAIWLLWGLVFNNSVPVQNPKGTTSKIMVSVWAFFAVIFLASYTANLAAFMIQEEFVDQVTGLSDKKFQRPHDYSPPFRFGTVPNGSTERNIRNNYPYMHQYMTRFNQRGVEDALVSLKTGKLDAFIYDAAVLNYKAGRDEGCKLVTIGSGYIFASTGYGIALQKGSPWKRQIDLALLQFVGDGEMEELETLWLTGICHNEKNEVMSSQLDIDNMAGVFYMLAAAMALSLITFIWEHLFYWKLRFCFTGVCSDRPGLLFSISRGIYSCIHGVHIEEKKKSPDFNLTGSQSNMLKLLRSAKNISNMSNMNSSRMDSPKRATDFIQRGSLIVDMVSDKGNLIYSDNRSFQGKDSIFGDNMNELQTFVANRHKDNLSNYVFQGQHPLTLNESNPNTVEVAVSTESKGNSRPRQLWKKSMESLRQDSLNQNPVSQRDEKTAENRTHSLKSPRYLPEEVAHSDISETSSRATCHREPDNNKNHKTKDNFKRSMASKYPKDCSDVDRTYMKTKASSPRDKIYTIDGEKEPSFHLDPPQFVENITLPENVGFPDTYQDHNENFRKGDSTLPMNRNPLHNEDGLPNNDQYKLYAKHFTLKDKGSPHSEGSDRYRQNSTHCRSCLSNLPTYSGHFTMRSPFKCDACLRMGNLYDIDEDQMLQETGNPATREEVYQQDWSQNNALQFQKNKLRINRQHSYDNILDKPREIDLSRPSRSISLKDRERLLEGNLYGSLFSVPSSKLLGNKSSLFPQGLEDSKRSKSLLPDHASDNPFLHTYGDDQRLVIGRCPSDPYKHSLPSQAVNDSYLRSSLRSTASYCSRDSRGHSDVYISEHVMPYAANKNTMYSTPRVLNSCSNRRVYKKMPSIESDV

Row | SMILES | IC50 at 24 h [1] [µM] | IC50 [2] [µM] | IC50 [3] [µM] | IC50 ASIC1a [3]
1 | N=C(N)NC(=O)c1nc(Cl)c(N)nc1N [Amiloride, reference compound] | 563 | 117 |  | 
2 | N=C(NCCc1ccccc1)NC(=N)NNC(=O)c1nc(Cl)c(N)nc1N [Compound 1] | 2680 | 3.5 | 4.7 | 
3 | N=C(NCCc1ccc(Cl)cc1)NC(=N)NNC(=O)c1nc(Cl)c(N)nc1N [Compound 2, 1-(3,5-diamino-6-chloropyrazinamide)-5-[2-(4-chlorophenyl)ethyl]biguanide] | 978 | 0.23 | 0.49 | 
4 | N=C(NCCc1ccc(Cl)c(Cl)c1)NC(=N)NNC(=O)c1nc(Cl)c(N)nc1N [Compound 3] | 277 | 0.3 | 0.21 | 
5 | CC12CC3CC(C)(C1)CC(N)(C3)C2 [Memantine, reference compound] | 146 |  |  | no effect
